Molecular target: T1, EcBE (E. coli branching enzyme) (Escherichia coli, UniProt P07762)
T1 construct: gene glgB; N-domain removed (first 113 amino acids of full-length EcBE); CBM48, catalytic and C-terminal domains kept; overexpressed in E. coli; four molecules per asymmetric unit
T1 sequence (P07762 114-728): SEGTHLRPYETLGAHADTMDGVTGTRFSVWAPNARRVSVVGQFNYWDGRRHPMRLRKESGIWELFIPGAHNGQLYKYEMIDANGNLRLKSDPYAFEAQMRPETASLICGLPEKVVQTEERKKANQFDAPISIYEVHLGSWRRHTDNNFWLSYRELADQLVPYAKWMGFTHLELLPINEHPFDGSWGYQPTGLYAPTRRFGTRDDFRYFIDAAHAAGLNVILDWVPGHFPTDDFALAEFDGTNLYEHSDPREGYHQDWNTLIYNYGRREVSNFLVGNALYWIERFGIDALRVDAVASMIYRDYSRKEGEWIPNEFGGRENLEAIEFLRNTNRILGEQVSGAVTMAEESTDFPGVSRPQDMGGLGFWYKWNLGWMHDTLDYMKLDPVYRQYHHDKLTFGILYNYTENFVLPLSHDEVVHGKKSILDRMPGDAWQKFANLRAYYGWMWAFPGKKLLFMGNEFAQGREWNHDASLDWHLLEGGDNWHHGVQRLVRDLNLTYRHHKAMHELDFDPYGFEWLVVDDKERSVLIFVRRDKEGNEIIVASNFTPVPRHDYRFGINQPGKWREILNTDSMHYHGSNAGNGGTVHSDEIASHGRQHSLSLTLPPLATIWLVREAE
Assay: X-ray crystallography, crystal soak, […] Å
Format: binding
Conditions: crystals soaked in 150 mM maltooctaose 5.5 h, 1.3 M ammonium tartrate pH 7.6, 10% PEG 4000; surface sites I-V and VIII-XII, not active site

OC[C@H]1O[C@H](O[C@H]2[C@H](O)[C@@H](O)[C@@H](O[C@H]3[C@H](O)[C@@H](O)[C@@H](O[C@H]4[C@H](O)[C@@H](O)[C@@H](O[C@H]5[C@H](O)[C@@H](O)[C@@H](O[C@H]6[C@H](O)[C@@H](O)[C@@H](O[C@H]7[C@H](O)[C@@H](O)[C@@H](O[C@H]8[C@H](O)[C@@H](O)C(O)O[C@@H]8CO)O[C@@H]7CO)O[C@@H]6CO)O[C@@H]5CO)O[C@@H]4CO)O[C@@H]3CO)O[C@@H]2CO)[C@H](O)[C@@H](O)[C@@H]1O (stereo partly shown) [M8, maltooctaose]
X-ray crystallography, crystal soak, 3.0 Å: we report the crystal structure of the maltooctaose-bound branching enzyme from the enterobacteria E. coli

Source: publication PMC10254366, “The Structure of Maltooctaose-Bound Escherichia coli Branching Enzyme Suggests a Mechanism for Donor Chain Specificity” (Molecules, 2023)
